Assay results taken from patent publication US20100119599A1 (ARCHER PHARMACEUTICALS, INC., priority 2006, published 2010).

Key:
Aβ1-40 = test: Measurement of Aβ1-40 in culture medium of 7W WT APP751 CHO cells by ELISA; format: cell-based, Chinese hamster; details: for Aβ1-40 (% of control): CHO cells that overexpress APP751, zero = below the detection limit of the assay; for activity at 5 µM: Cricetulus griseus, Table 1, 5 μM test compound, CHO cells stably transfected with human APP751, culture medium, ELISA, control DMSO, 0 = no detectable amount
Aβ1-42 = test: Measurement of Aβ1-42 in culture medium of 7W WT APP751 CHO cells by ELISA; format: cell-based, Chinese hamster; details: for Aβ1-42 (% of control): CHO cells that overexpress APP751, zero = below the detection limit of the assay; for activity at 5 µM: Cricetulus griseus, Table 1, 5 μM test compound, CHO cells stably transfected with human APP751, culture medium, ELISA, control DMSO, 0 = no detectable amount, read-out: Aβ1-42 (% of control)
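Also: 5 µM test compound but RI-coded compounds at 10 µM for 24 hours.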

SMILES | Aβ1-40 (% of control) (Aβ1-40) | Aβ1-42 (% of control) (Aβ1-42) | activity at 5 µM (Aβ1-40) [%] | activity at 5 µM (Aβ1-42) [%]
COC(=O)CSC1=C(C#N)C(c2cccs2)C(C(C)=O)=C(C)N1 (stereo not shown) [ST014038, methyl 2-(5-acetyl-3-cyano-6-methyl-4-(2-thienyl)-2-1,4-dihydropyridylthio)acetate] | 29.98 % of control | 21.82 % of control | – | –
Cc1cccc(C(C)C)c1NC(=O)CSc1nc(C)c(C(=O)Nc2ccccc2)c(-c2cccs2)c1C#N [RI_36] | 35.9 % of control | 72.9 % of control | – | –
CCOc1ccc(NC(=O)CSC2=C(C#N)C(c3ccco3)C(C(=O)Nc3ccccc3C)=C(C)N2)cc1 (stereo not shown) [ST051158, 2-{3-cyano-4-(2-furyl)-6-methyl-5-[N-(2-methylphenyl)carbamoyl](2-1,4-dihydropyridylthio)}-N-(4-ethoxyphenyl)acetamide] | 17.68 % of control | 15.87 % of control | – | –
CCN(CC)c1ccc(C2C(C(=O)OC)=C(C)NC3=C2C(=O)CC(c2ccccc2Cl)C3)cc1 (stereo not shown) [ST015182, methyl 4-[4-(diethylamino)phenyl]-7-(2-chlorophenyl)-2-methyl-5-oxo-1,4,6,7,8-pentahydroquinoline-3-carboxylate] | – | – | 39.9 | 61.4
CCCCCOC(=O)C1=C(C)NC2=C(C(=O)CCC2)C1c1cccc(O)c1 (stereo not shown) [ST017336, pentyl 4-(3-hydroxyphenyl)-2-methyl-5-oxo-1,4,6,7,8-pentahydroquinoline-3-carboxylate] | – | – | 62.9 | 72.7
CC1=C(C(=O)OC2CCCC2)C(c2cccc(Cl)c2)C2=C(CCCC2=O)N1 (stereo not shown) [ST013156, cyclopentyl 4-(3-chlorophenyl)-2-methyl-5-oxo-1,4,6,7,8-pentahydroquinoline-3-carboxylate] | – | – | 0 | 13.7
CCOC(=O)C1=C(C)NC(C)=C(C(=O)OC)C1c1cc(Cl)cc(Cl)c1OC (stereo not shown) [ST211424, methyl 4-(3,5-dichloro-2-methoxyphenyl)-5-(ethoxycarbonyl)-2,6-dimethyl-1,4-dihydropyridine-3-carboxylate] | 62.46 % of control | 91.29 % of control | – | –
CCOC(=O)C1=C(N)n2c(s/c(=C/c3ccco3)c2=O)=C(C(=O)OCC)C1c1ccco1 (stereo not shown) [ST011765, ethyl 5-amino-6-(ethoxycarbonyl)-7-(2-furyl)-2-(2-furylmethylene)-3-oxo-4,7-dihydro-1,3-thiazolidino[3,2-a]pyridine-8-carboxylate] | 42.57 % of control | 29.42 % of control | – | –
N#CC1=C(N)N2C(=O)C(Cc3ccc(Br)cc3)SC2=C(C#N)C1c1ccc(Br)cc1 (stereo not shown) [RI_97] | 76.7 % of control | 74.9 % of control | – | –
COc1cc(C2C(C(=O)OCCOc3ccccc3)=C(C)NC3=C2C(=O)CC(C)(C)C3)ccc1OCc1ccccc1 (stereo not shown) [ST015071, 2-phenoxyethyl 4-[3-methoxy-4-(phenylmethoxy)phenyl]-2,7,7-trimethyl-5-oxo-1,4,6,7,8-pentahydroquinoline-3-carboxylate] | – | – | 60.8 | 88.3
COC(=O)C1=CN(C2CC2)C=C(C(=O)OC)C1c1cccc(F)c1 [ST038735, methyl 1-cyclopropyl-4-(3-fluorophenyl)-5-(methoxycarbonyl)-1,4-dihydropyridine-3-carboxylate] | 65.36 % of control | 98.52 % of control | – | –
C=CCOC(=O)C1=C(C)NC(S)=C(C#N)C1c1cccnc1 (stereo not shown) [ST011596, prop-2-enyl 5-cyano-2-methyl-4-(3-pyridyl)-6-sulfanyl-1,4-dihydropyridine-3-carboxylate] | 66.77 % of control | 86.14 % of control | – | –
COC(=O)CSC1=C(C#N)C(c2ccc(Cl)cc2)C(C(=O)OC(C)(C)C)=C(C)N1 (stereo not shown) [ST050862, methyl 2-{5-[(tert-butyl)oxycarbonyl]-4-(4-chlorophenyl)-3-cyano-6-methyl-2-1,4-dihydropyridylthio}acetate] | 65.24 % of control | 56.21 % of control | – | –
CCOc1cccc(C2C(C(=O)OC)=CNC=C2C(=O)OC)c1 [ST052415, methyl 4-(3-ethoxyphenyl)-5-(methoxycarbonyl)-1,4-dihydropyridine-3-carboxylate] | 70.57 % of control | 72.15 % of control | – | –
COC(=O)C1=C(C)NC2=C(C(=O)CCC2)C1c1cc(OC)ccc1OC (stereo not shown) [ST013073, methyl 4-(2,5-dimethoxyphenyl)-2-methyl-5-oxo-1,4,6,7,8-pentahydroquinoline-3-carboxylate] | – | – | 49.5 | 93.2
CC1=C(C(=O)OCCc2ccccc2)C(c2ccc(N(C)C)cc2)C2=C(CC(C)(C)CC2=O)N1 (stereo not shown) [ST052231, 2-phenylethyl 4-[4-(dimethylamino)phenyl]-2,7,7-trimethyl-5-oxo-1,4,6,7,8-pentahydroquinoline-3-carboxylate] | – | – | 38.8 | 63.5

SMILES | Aβ1-40 (% of control) (Aβ1-40) | Aβ1-42 (% of control) (Aβ1-42) | activity at 5 µM (Aβ1-40) [%] | activity at 5 µM (Aβ1-42) [%]
CC1=C(C(=O)OCCc2ccccc2)C(c2ccc(C)o2)C2=C(CC(C)(C)CC2=O)N1 (stereo not shown) [ST052398, 2-phenylethyl 2,7,7-trimethyl-4-(5-methyl(2-furyl))-5-oxo-1,4,6,7,8-pentahydroquinoline-3-carboxylate] | – | – | 44.3 | 55.6
CSC1=C(C#N)C(c2ccc(Cl)cc2)C(C(=O)OC(C)(C)C)=C(C)N1 (stereo not shown) [ST050983, tert-butyl 4-(4-chlorophenyl)-5-cyano-2-methyl-6-methylthio-1,4-dihydropyridine-3-carboxylate] | 51.3 % of control | 0 % of control | – | –
CC1=C(C(=O)OC2CCCCC2)C(c2ccc(C)cc2)C2=C(CC(c3ccccc3)CC2=O)N1 (stereo not shown) [ST013438, cyclohexyl 2-methyl-4-(4-methylphenyl)-5-oxo-7-phenyl-1,4,6,7,8-pentahydroquinoline-3-carboxylate] | – | – | 31.5 | 93.5
CCOC(=O)C1=CN(c2cc(C)ccc2C)C=C(C(=O)OCC)C1c1cc(OC)c(OC)cc1OC [ST052474, ethyl 1-(2,5-dimethylphenyl)-5-(ethoxycarbonyl)-4-(2,4,5-trimethoxyphenyl)-1,4-dihydropyridine-3-carboxylate] | 5.404 % of control | 3.498 % of control | – | –
CC1=C(C(=O)Nc2ccccc2)C(c2ccsc2)C(C#N)=C(SCC(=O)Nc2ccc(C)c(Cl)c2)N1 (stereo not shown) [RI_67] | 42.6 % of control | 51.8 % of control | – | –
CC1=C(C(=O)Nc2ccc(Cl)cc2)C(c2ccsc2)C(C#N)=C(SCC(=O)Nc2ccc(C)c(Cl)c2)N1 (stereo not shown) [RI_37] | 64.4 % of control | 75.8 % of control | – | –
CC1=C(C(=O)Nc2ccccc2)C(c2ccsc2)C(C#N)=C(SCC(=O)N2CCCCCCCCCCC2)N1 (stereo not shown) [RI_33] | 11.9 % of control | 13.7 % of control | – | –
CC1=C(C(=O)Nc2ccccc2)C(c2cccs2)C(C#N)=C(SCC(=O)Nc2ccccc2F)N1 (stereo not shown) [RI_12] | 68.4 % of control | 82.5 % of control | – | –
CCN(CC)c1ccc(C2C(C(=O)OCc3ccccc3)=C(C)NC3=C2C(=O)CC(C)(C)C3)cc1 (stereo not shown) [ST013049, phenylmethyl 4-[4-(diethylamino)phenyl]-2,7,7-trimethyl-5-oxo-1,4,6,7,8-pentahydroquinoline-3-carboxylate] | – | – | 27.8 | 94.1
CC1=C(C(=O)Nc2ccccc2)C(c2cccs2)C(C#N)=C(SCC(=O)Nc2ccc(F)cc2)N1 (stereo not shown) [RI_76] | 46.2 % of control | 54.6 % of control | – | –
CC1=C(C(=O)OCCOc2ccccc2)C(c2ccc(Cl)cc2)C2=C(CC(C)(C)CC2=O)N1 (stereo not shown) [ST015093, 2-phenoxyethyl 4-(4-chlorophenyl)-2,7,7-trimethyl-5-oxo-1,4,6,7,8-pentahydroquinoline-3-carboxylate] | – | – | 0 | 0
COC(=O)C1=C(N)n2c(s/c(=C/c3cccnc3)c2=O)=C(C(=O)OC)C1c1cccnc1 (stereo not shown) [ST011768, methyl 5-amino-6-(methoxycarbonyl)-3-oxo-7-(3-pyridyl)-2-(3-pyridylmethylene)-4,7-dihydro-1,3-thiazolidino[3,2-a]pyridine-8-carboxylate] | 42.71 % of control | 97.83 % of control | – | –
COC(=O)C1=C(C)NC2=C(C(=O)CC(c3ccccc3)C2)C1c1cc(OC)ccc1OC (stereo not shown) [ST013117, methyl 4-(2,5-dimethoxyphenyl)-2-methyl-5-oxo-7-phenyl-1,4,6,7,8-pentahydroquinoline-3-carboxylate] | – | – | 22.4 | 46.1
N#CC1=C(SCC(=O)Nc2ccc(Br)cc2)NC2=C(C(=O)CCC2)C1c1ccccc1Cl (stereo not shown) [ST050407, N-(4-bromophenyl)-2-[4-(2-chlorophenyl)-3-cyano-5-oxo(2-1,4,6,7,8-pentahydroquinolylthio)]acetamide] | – | – | 56.7 | 44.3
COc1cc(Br)c(C2C(C#N)=C(C)NC3=C2C(=O)CC(c2ccc(Cl)cc2)C3)cc1OC (stereo not shown) [ST017045, 4-(2-bromo-4,5-dimethoxyphenyl)-7-(4-chlorophenyl)-2-methyl-5-oxo-1,4,6,7,8-pentahydroquinoline-3-carbonitrile] | – | – | 42.6 | 46
CCOc1cc(C2C(C(=O)OCCOC)=C(C)NC3=C2C(=O)CC(c2ccccc2)C3)cc(Br)c1O (stereo not shown) [ST017060, 2-methoxyethyl4-(3-bromo-5-ethoxy-4-hydroxyphenyl)-2-methyl-5-oxo-7-phenyl-1,4,6,7,8-pentahydroquinoline-3-carboxylate] | – | – | 39 | 61.7
